US7868176B2, “Salts of N-(4-fluorobenzyl)-N-(1-methylpiperidin-4-y1)-N′-(4-(2-methylpropyloxy)phenylmethyl)carbamide and their preparation” (ACADIA Pharmaceuticals, Inc., priority 2004, dated 2011)
Values after ≈ are worked out from the molar mass of the structure shown. Structures can show the parent of a compound that is named as a salt.

Assays:
[1] = Storage stability of the crystalline salt (HPLC area, Raman, appearance); type: physicochemical; settings: for Storage stability (general statement): crystalline forms disclosed; for HPLC area reference value: reference value against which the HPLC area after 1 week at 60° C./75% r.h. is compared
Experimental: FT-Raman Spectroscopy: Bruker RFS100. Nd:YAG 1064 nm excitation, 100 mW laser power, Ge-detector, 64 scans, range 25-3500 cm^−1, […].
HPLC: HPLC measurement were carried out with a HP LC1090M, Column Symmetry C18, 3.0·150 mm.

[2] = Approximate solubility in water; type: physicochemical
Experimental: The limit value of completely dissolved amount was determined. Determination of solubilities below 20 mg/l occurred with stirring suspensions in water, filtering off the excess, and measuring of the amount of substance in the filtrate.

[3] = stored 1 week at 60° C. and about 75% r.h. in an open container
[4] = approximate, double distilled water added stepwise to 5 mg substance, sonification
[5] = storage for 1 week at 100° C. in a closed ampoule
[6] = stored 1 week at 60° C. and about 75% r.h. in a closed container

CC(C)COc1ccc(CNC(=O)N(Cc2ccc(F)cc2)C2CCN(C)CC2)cc1 [Example 2, N-(4-fluorobenzyl)-N-(1-methylpiperidin-4-yl)-N′-(4-(2-methylpropyloxy)phenylmethyl)carbamide citrate]
Storage stability (general statement) [1]: good storage stability
HPLC area reference value [1]: 99.9%
HPLC area after storage [1, 3]: 99.4%
State of crystalline powder after storage [1, 3]: substantially unchanged
Solubility in aqueous systems (general statement) ([2]; aqueous systems): very soluble
solubility at 2 min ([2]; thermodynamic from solid, approximate, double distilled water added stepwise to 5 mg substance, sonification): ~14 mg/mL

CC(C)COc1ccc(CNC(=O)N(Cc2ccc(F)cc2)C2CCN(C)CC2)cc1.O=C(O)/C=C/C(=O)O [Example 3, N-(4-fluorobenzyl)-N-(1-methylpiperidin-4-yl)-N′-(4-(2-methylpropyloxy)phenylmethyl)carbamide fumarate]
HPLC area reference value [1]: 99.4%
Changes on storage detected with Raman spectroscopy ([1]; storage at 75% r.h. in an open container): changes of the substance after 3 days
HPLC area after storage [1, 3]: 96.7%
State of crystalline powder after storage [1, 3]: substantially unchanged
Solubility in water [2, 4]: > 500 mg/mL

CC(C)COc1ccc(CNC(=O)N(Cc2ccc(F)cc2)C2CCN(C)CC2)cc1 [Example 4, N-(4-fluorobenzyl)-N-(1-methylpiperidin-4-yl)-N′-(4-(2-methylpropyloxy)phenylmethyl)carbamide maleate]
Solubility in water [2, 4]: > 500 mg/mL

CC(C)COc1ccc(CNC(=O)N(Cc2ccc(F)cc2)C2CCN(C)CC2)cc1 [Example 5, N-(4-fluorobenzyl)-N-(1-methylpiperidin-4-yl)-N′-(4-(2-methylpropyloxy)phenylmethyl)carbamide malate]
Solubility in water [2, 4]: > 500 mg/mL

CC(C)COc1ccc(CNC(=O)N(Cc2ccc(F)cc2)C2CCN(C)CC2)cc1 [Example 6, N-(4-fluorobenzyl)-N-(1-methylpiperidin-4-yl)-N′-(4-(2-methylpropyloxy)phenylmethyl)carbamide phosphate]
Solubility in water [2, 4]: > 250 mg/mL

CC(C)COc1ccc(CNC(=O)N(Cc2ccc(F)cc2)C2CCN(C)CC2)cc1 [Example 7, N-(4-fluorobenzyl)-N-(1-methylpiperidin-4-yl)-N′-(4-(2-methylpropyloxy)phenylmethyl)carbamide succinate]
Solubility in water [2, 4]: > 500 mg/mL

CC(C)COc1ccc(CNC(=O)N(Cc2ccc(F)cc2)C2CCN(C)CC2)cc1 [Example 9, N-(4-fluorobenzyl)-N-(1-methylpiperidin-4-yl)-N′-(4-(2-methylpropyloxy)phenylmethyl)carbamide edisylate]
Storage stability (general statement) [1]: good storage stability
HPLC area reference value [1]: 96.8%
HPLC area after storage [1, 5]: 97.4%
State of crystalline product after storage [1, 5]: does not decompose
HPLC area after storage [1, 6]: 97.4%
State of crystalline powder after storage [1, 6]: remains a white powder
Solubility in water [2, 4]: 4 mg/mL (≈ 9.36 mM)
